Measured values taken from publication PMC2582240, “Enhanced A3 adenosine receptor selectivity of multivalent nucleoside-dendrimer conjugates” (Journal of Nanobiotechnology, 2008).

Experiments:
[1] = target: T1, A2A AR (Homo sapiens, UniProt P29274); assay: Radioligand binding at A2A AR ([3H]CGS21680, HEK cells)
T1 construct: expressed in transfected cells; host or cells: CHO
Experimental: (§1) CHO (Chinese hamster ovary) cells stably expressing the recombinant human ARs were cultured in Dulbecco's modified Eagle medium (DMEM) and F12 (1:1) supplemented with 10% fetal bovine serum, 100 units/mL penicillin, 100 μg/mL streptomycin, and 2 μmol/mL glutamine. After harvesting, cells were homogenized and suspended. Cells were then centrifuged at 500 g for 10 min, and the pellet was resuspended in 50 mM Tris-HCl buffer (pH 7.5) containing 10 mM MgCl2. The suspension was homogenized and was then recentrifuged at 20 000 g for 20 min at 4°C. The resultant pellets were resuspended in Tris buffer, incubated with adenosine deaminase for 30 min at 37°C, and the suspension was stored at -80°C until the binding experiments. The protein concentration was measured using the BCA Protein Assay Kit from Pierce.
(§2) Radioligand binding assays were performed for A1 and A2A ARs, following the procedure described previously. Each tube in the binding assay contained 100 μL of membrane suspension (20 μg of protein), 50 μL of agonist radioligand, and 50 μL of increasing concentrations of the test ligands in Tris-HCl buffer (50 mM, pH 7.5) containing 10 mM MgCl2. The concentration of the dendrimer-ligand complexes are measured by the concentration of the dendrimer, not the ligand. Therefore, all Ki values are measured as Ki app values. Nonspecific binding was determined using a final concentration of 10 μM 5'-N-ethylcarboxamidoadenosine diluted with the buffer. The mixtures were incubated at 25°C for 60 min. Binding reactions were terminated by filtration through Whatman GF/B filters under a reduced pressure using a MT-24 cell harvester (Brandell, Gaithersburg, MD). Filters were washed three times with 5 mL of 50 mM ice-cold Tris-HCl buffer (pH 7.5). […] All of the filters were washed 3 times with Tris-HCl, pH 7.5. Filters for A1 and A2A AR binding were placed in scintillation vials containing 5 mL of Hydrofluor scintillation buffer and counted using a Perkin Elmer Liquid Scintillation Analyzer. Filters for A3 AR binding were counted using a Packard Cobra II γ-counter. The Ki values were determined using GraphPad Prism for all assays.

[2] = target: T2, A3 AR (Homo sapiens, UniProt P0DMS8); assay: cAMP assay (inhibition of forskolin-stimulated adenylyl cyclase) in CHO cells expressing A3 AR; type: cell-based; details: for EC50: cAMP inhibition, mean ± SEM, n = 3; for A3 (adenylyl cyclase), class word: relative to total inhibition by ADAC
T2 construct: expressed in transfected cells; host or cells: CHO cells, stably transfected
T2 sequence (P0DMS8 1-318): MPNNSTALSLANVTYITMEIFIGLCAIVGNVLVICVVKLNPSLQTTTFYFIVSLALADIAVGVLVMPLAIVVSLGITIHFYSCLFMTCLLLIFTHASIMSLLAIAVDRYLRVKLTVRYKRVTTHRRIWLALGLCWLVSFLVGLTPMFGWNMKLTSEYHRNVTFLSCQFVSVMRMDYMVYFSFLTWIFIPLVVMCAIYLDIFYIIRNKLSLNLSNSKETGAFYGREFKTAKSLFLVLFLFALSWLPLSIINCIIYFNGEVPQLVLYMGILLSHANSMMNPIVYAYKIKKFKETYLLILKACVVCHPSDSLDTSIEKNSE
Experimental: (§3) CHO cells expressing either the A1 or A3 AR were seeded in 24 well plates and incubated at 37°C overnight. The following day the medium was removed and replaced with DMEM containing 50 mM HEPES, 10 μM rolipram, 3 U/ml adenosine deaminase and increasing concentrations of the compounds. After a 30 min incubation at 37°C, 10 μM of forskolin was added to stimulate cAMP levels, and the cells were incubated at 37°C for an additional 15 min. The medium was removed, and the cells were lysed with 200 μl of 0.1 M HCl. 100 μl of the HCl solution was used in the Sigma Direct cAMP Enzyme Immunoassay following the instructions provided with the kit.

[3] = system: ten-min bilateral cerebrovascular occlusion; details: cited from earlier work
[4] = target: T3, A1 AR (Homo sapiens, UniProt P30542); assay: [35S]GTPγS binding assay in CHO A1 membranes; type: biochemical; details: for EC50: mean ± SEM, n = 3
T3 sequence (P30542 1-326): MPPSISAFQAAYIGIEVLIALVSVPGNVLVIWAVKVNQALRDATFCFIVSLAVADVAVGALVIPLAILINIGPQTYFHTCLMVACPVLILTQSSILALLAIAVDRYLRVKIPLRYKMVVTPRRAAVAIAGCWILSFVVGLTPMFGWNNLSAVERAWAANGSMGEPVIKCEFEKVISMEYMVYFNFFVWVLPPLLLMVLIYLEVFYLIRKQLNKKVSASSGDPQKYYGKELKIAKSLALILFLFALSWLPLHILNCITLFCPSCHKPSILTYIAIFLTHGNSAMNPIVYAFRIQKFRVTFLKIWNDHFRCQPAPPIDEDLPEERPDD
Experimental: as §1
[^35S]GTPγS binding was measured in 200 μl of buffer containing 50 mM Tris-HCl (pH 7.4), 1 mM EDTA, 1 mM MgCl2, 10 μM GDP, 1 mM dithiothreitol, 100 mM NaCl, 3 units/ml adenosine deaminase, 0.2 nM [^35S]GTPγS, 0.004% CHAPS, 0.5% bovine serum albumin and increasing concentrations of the ligands. Samples were started by addition of the membrane suspension (5–10 μg protein/tube) to the test tubes and incubated at 25°C for 30 min. The assay was terminated by rapid filtration through Whatman GF/B filters, pre-soaked in 50 mM Tris-HCl (pH 7.4) containing 5 mM MgCl2 and 0.02% CHAPS. Non-specific binding of [^35S]GTPγS was measured in the presence of 10 μM unlabelled GTPγS. After the filters were washed, they were placed in scintillation vials containing 5 mL of Hydrofluor scintillation buffer and counted using a Perkin Elmer Liquid Scintillation Analyzer. The EC50 values were determined using GraphPad Prism for all assays.

[5] = target: T3, A1 AR; assay: cAMP assay (inhibition of forskolin-stimulated adenylyl cyclase) in CHO cells expressing A1 AR; type: cell-based; details: for EC50: cAMP inhibition, mean ± SEM, n = 3; for A1 (adenylyl cyclase), class word: at 10 μM, relative to total inhibition by ADAC
Experimental: as §3

[6] = target: T3, A1 AR; assay: Radioligand binding at A1 AR ([3H]CCPA, CHO cell membranes); details: for Difference in affinity between the human A1 and A3 ARs / Binding at the A1 AR, in words: radioligand binding; for A1 binding, class symbol: inhibition of radioligand binding at 10 μM
Experimental: as §1
Radioligand binding assays were performed for A1 and A2A ARs, following the procedure described previously. Each tube in the binding assay contained 100 μL of membrane suspension (20 μg of protein), 50 μL of agonist radioligand, and 50 μL of increasing concentrations of the test ligands in Tris-HCl buffer (50 mM, pH 7.5) containing 10 mM MgCl2. The concentration of the dendrimer-ligand complexes are measured by the concentration of the dendrimer, not the ligand. Therefore, all Ki values are measured as Ki app values. Nonspecific binding was determined using a final concentration of 10 μM 5'-N-ethylcarboxamidoadenosine diluted with the buffer. The mixtures were incubated at 25°C for 60 min. Binding reactions were terminated by filtration through Whatman GF/B filters under a reduced pressure using a MT-24 cell harvester (Brandell, Gaithersburg, MD). Filters were washed three times with 5 mL of 50 mM ice-cold Tris-HCl buffer (pH 7.5). The radioactive agonists [^3H]2-chloro-N^6-cyclopentyladenosine and [^3H]2-(4-(2-carboxyethyl)phenylethylamino)-5'-N-ethylcarboxamido-adenosine were used for the A1 and A2A assays, respectively. All of the filters were washed 3 times with Tris-HCl, pH 7.5. Filters for A1 and A2A AR binding were placed in scintillation vials containing 5 mL of Hydrofluor scintillation buffer and counted using a Perkin Elmer Liquid Scintillation Analyzer. Filters for A3 AR binding were counted using a Packard Cobra II γ-counter. The Ki values were determined using GraphPad Prism for all assays.

[7] = target: T2, A3 AR; assay: Radioligand binding at A3 AR ([125I]AB-MECA, CHO cell membranes)
Experimental: as §1, §2

[8] = system: CHO A3 cells; assay: Light and fluorescent microscopy of CHO A3 cells; type: cell-based, Chinese hamster; details: 10 μM, 1 h, one wash with PBS, CHO cells stably expressing the A3 AR
Experimental: (§4) After one wash with PBS, the cells were imaged at 100× magnification on a Zeiss AxioVision D1 Imager, and both light and fluorescent pictures were obtained.
(§5) CHO or CHO A3 cells were seeded on a cover disk in a 6 well dish (250,000 cells per well). After the cells were incubated for 24 hrs at 37°C, the medium was removed and replaced with DMEM containing 10 μM of the 15 or 17. The cells were incubated for 1 h at 37°C and washed one time with PBS. The images were taken with at 100× manification using a Zeiss AxioVision D1 Imager equipped with AxioVision 4.5 software.

[9] = system: CHO cells; assay: Light and fluorescent microscopy of CHO cells not expressing the A3 AR; type: cell-based, Chinese hamster; details: 10 μM, 1 h, one wash with PBS
Experimental: as §4, §5

[10] = inhibition of radioligand binding at 10 μM

T1 sequence (P29274 whole entry): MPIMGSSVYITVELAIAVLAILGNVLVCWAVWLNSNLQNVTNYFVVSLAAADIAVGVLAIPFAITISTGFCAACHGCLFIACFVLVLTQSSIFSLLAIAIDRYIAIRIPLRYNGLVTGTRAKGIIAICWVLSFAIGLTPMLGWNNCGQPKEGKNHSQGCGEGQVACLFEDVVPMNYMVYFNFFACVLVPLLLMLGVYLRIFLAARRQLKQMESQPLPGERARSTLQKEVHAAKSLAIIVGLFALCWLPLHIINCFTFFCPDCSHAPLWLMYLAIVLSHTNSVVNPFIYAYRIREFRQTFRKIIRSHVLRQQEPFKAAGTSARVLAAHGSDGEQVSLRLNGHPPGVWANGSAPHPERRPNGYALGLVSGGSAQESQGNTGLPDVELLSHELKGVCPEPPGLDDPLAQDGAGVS

For `NCCNC(=O)Cc1ccc(NC(=O)Cc2ccc(Nc3ncnc4c3ncn4[C@@H]3O[C@H](CO)[C@@H](O)[C@H]3O)cc2)cc1` [Compound 1, N^6-[4-[[[4-[[[(2-aminoethyl)amino]carbonyl]methyl]anilino]-carbonyl]methyl]phenyl]adenosine, reference compound], the Ki [1] is given as 370 ± 100 nM, the EC50 [2] is given as 100 ± 50 nM and the “Protection against neuronal damage and mortality” value ([3]; acute or chronic administration prior to occlusion) is given as “protects against neuronal damage and mortality”. The Neuronal protection post-ischemia ([3]; given up to twelve hours post-ischemia) was “provides neuronal protection”, the EC50 [4] was 94 ± 26 nM and the EC50 [5] was 400 ± 80 nM. For the same compound, the Ki [6] was 10.4 ± 3.8 nM, the “Difference in affinity between the human A1 and A3 ARs” value (“Difference” below) [6] was < 5 fold and the Ki [7] was 12.2 ± 4.1 nM.

Compound `O=C(O)CCc1ccc(NC(=S)NCCNC(=O)Cc2ccc(NC(=O)Cc3ccc(Nc4ncnc5c4ncn5[C@@H]4O[C@H](CO)[C@@H](O)[C@H]4O)cc3)cc2)cc1` [Compound 4, 3-(4-(3-(2-(2-(4-(2-(4-(9-((2R,3R,4S,5R)-3,4-Dihydroxy-5-(hydroxymethyl)tetrahydrofuran-2-yl)-9H-purin-6-ylamino)phenyl)acetamido)-phenyl)acetamido)ethyl)thioureido)phenyl)pro-panoic acid] has a Ki [1] of 800 ± 360 nM, an EC50 [2] of 140 ± 70 nM and an EC50 [4] of 1300 ± 400 nM. For the same compound, the EC50 [5] was 350 ± 20 nM, the Ki [6] was 30 ± 9 nM and the “Difference” value [6] was < 5 fold. The Ki [7] was 74 ± 20 nM.

With `NCCNCCNC(=O)Cc1ccc(NC(=O)Cc2ccc(Nc3ncnc4c3ncn4[C@@H]3O[C@H](CO)[C@@H](O)[C@H]3O)cc2)cc1` [Compound 7, N-(2-(2-Aminoethylamino)ethyl)-2-(4-(2-(4-(9-((2R,3R,4S,5R)-3,4-dihydroxy-5-(hydroxymethyl)-tetrahydrofuran-2-yl)-9H-purin-6-ylamino)-phenyl)acetamido)phenyl)acetamide] the Ki [1] was 300 ± 20 nM, the “Fold more potent than either ADAC or 4 in adenylyl cyclase assay” value ([2]; A3 AR) was 3 – 7 fold and the EC50 [2] was 36 ± 13 nM. The “Fold more potent than 4 in activation of GTPγS binding via the A1 AR” value [4] was 20 fold, the EC50 [4] was 63 ± 14 nM and the “Fold more potent than either ADAC or 4 in adenylyl cyclase assay” value ([5]; A1 AR) was 3 – 7 fold. The EC50 [5] was 89 ± 17 nM, the Ki [6] was 43 ± 5 nM and the “Difference” value [6] was < 5 fold. For the same compound, the Ki [7] was 9.5 ± 2 nM.

In the case of G2.5 PAMAM – AF488 [Compound 15], the “A2A binding, class symbol” value [1, 10] is reported as “NB^b (NB, No binding. Inhibition of radioligand binding < 10% at 10 μM)”, the “A3 (adenylyl cyclase), class word” value ([2]; at 10 μM) is reported as “inactive^c” and the “Inhibition of cAMP production at the A1 AR, in words” value [5] is reported as “no binding or activity”. The “A1 (adenylyl cyclase), class word” value [5] was “inactive^c”, the “Fluorescent binding to cells” value [8] was “Neither type of CHO cells were bound” and the “A1 binding, class symbol” value [6] was “NB^b (NB, No binding. Inhibition of radioligand binding < 10% at 10 μM)”. The “Binding at the A1 AR, in words” value [6] was “no binding”, the “A3 binding, class symbol” value [7, 10] was “NB^b (NB, No binding. Inhibition of radioligand binding < 10% at 10 μM)” and the “Fluorescent binding to cells” value [9] was “Neither type of CHO cells were bound”.

With G3 PAMAM – 23 Ac – AF488 [Compound 11] the “Inhibition of cAMP production at the A3 AR, in words” value ([2]; at 10 μM) was “unable to significantly inhibit cAMP production”, the “A3 (adenylyl cyclase), class word” value ([2]; at 10 μM) was “inactive^c” and the “Inhibition of cAMP production at the A1 AR, in words” value [5] was “unable to significantly inhibit cAMP production”. For the same compound, the “A1 (adenylyl cyclase), class word” value [5] was “inactive^c”, the “A1 binding, class symbol” value [6] was “NB^b (NB, No binding. Inhibition of radioligand binding < 10% at 10 μM)” and the “Binding at the A1 AR, in words” value [6] was “no binding”.
